In patent publication US20240197666A1, “DITERPENOID COMPOUNDS THAT ACT ON PROTEIN KINASE C (PKC)” (K-Gen Therapeutics, Inc., priority 2021, published 2024):
Like-named read-outs stand apart in the source and are kept apart here.

Columns and labels:
[1] = test system: NFκB-driven transcription in HeLa-NFκB luciferase reporter cell line; assay: NFκB luciferase reporter assay; settings: Homo sapiens, HeLa, 16 h, read-out: NFκB-luc HeLa cells EC50 (μM)
Experimental: A HeLa-NFκB luciferase reporter cell line (Wuxi Biology) was used to assess a group of PKC activator compounds for their ability to activate NFκB-driven transcription. […] One set of cells was assayed for luciferase activity (Promega, Cat #E1500) and the other set was assayed to determine the number of viable cells (for cell number normalization) using CellTiter-Glo (CTG) kit (Promega, Cat #G7570) according to manufacture's procedures. Normalized data (luciferase value/CTG value) were analyzed using GraphPad Prism5 to calculate EC50 for each compound (see Table 8).
To assess if activation of PKC is required for these compounds to activate NFκB, several PKC inhibitors including broad-spectrum and conventional PKC inhibitors were tested. In the assay described above, PKC inhibitors were added at the same time as the PKC activator compounds.

human PBMC cells = assay: Cytokine/chemokine gene expression in human PBMC (TaqMan); assay type: cell-based; settings: 4 h;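 as to Gene Relative Expression CCL2: 2^-ΔΔCt fold change vs DMSO control normalized to 18S and GAPDH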;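 as to Gene Relative Expression GM-CSF: 2^-ΔΔCt fold change vs DMSO control normalized to 18S and GAPDH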;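 as to Gene Relative Expression IFN-α: 2^-ΔΔCt fold change vs DMSO control normalized to 18S and GAPDH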;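 as to Gene Relative Expression IFNγ: 2^-ΔΔCt fold change vs DMSO control normalized to 18S and GAPDH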
Experimental: Each treatment condition was performed in duplicates.

Hela cells = assay: In vitro scratch wound healing assay; assay type: cell-based; settings: 24h
Experimental: Scratch wound healing assay creates a gap by scratching a confluent monolayer of cells to mimic a wound and then measures the ability of cells to fill up the gap (wound) in the presence of DMSO or test compounds. 1.2-1.5×10^5 Hela cells in 1 mL media RPMI-1640 with 10% FBS were seeded in 24-well plates. Cells were starved for overnight in the same media without FBS when cells became confluent. After starvation, a scratch was made in the middle of the well and the plates were washed three times to remove detached cells. DMSO or different concentrations of compounds were diluted and added to the cells. The assay plates were put into Incucyte S3 and scanned with 4× scanner setting regularly. The imaging results were exported and the wound area was analyzed by ImageJ. Wound healing or closure was calculated by the following formula: wound healing %=(wound area at 0h−wound area at 24h)/wound area 0h*100%. Relative wound healing was calculated by dividing wound healing % of compound treatment to that of DMSO*100%.

A549 cell line = assay: Proliferation of A549 (CellTiter Glo); assay type: cell-based; settings: Homo sapiens, A549, 96 h, read-out: IC50 μM (A549 Cell Line)
How it was run: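 A549 cells (K-Ras-mutant NSCLC) were seeded at 1,000 cells/well, allowed 24 h to settle, then exposed for 96 h to 3-fold serially diluted compound (final DMSO ≤0.25%). CellTiter Glo luminescence was read, and inhibition was calculated relative to DMSO-only wells. IC50, relative IC50 and % top inhibition came from curve fitting.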

KP-4 (Pancreatic) = assay: Proliferation of KP-4; assay type: cell-based; settings: read-out: IC50 KP-4 (Pancreatic)
How it was run: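 Luminescent ATP read-out (CellTiter Glo) after 96 h compound exposure gave % inhibition relative to DMSO-treated cells, from which IC50 was fitted. Seeding densities were line-specific, from 800 to 10000 cells/well. Potency across batches was normalised to reference compound K101.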

In the case of `CC1=C[C@H]2[C@@]3(O)[C@H](C)C[C@]4(OC(=O)[C@@H](N)CCCCCCc5ccccc5)[C@H]([C@@H]3C=C(CO)C[C@]2(O)C1=O)C4(C)C`, the EC50 [1] is reported as 0.001 to 0.01 µM, the “Gene Relative Expression CCL2” value (human PBMC cells; 0.01 μM) is reported as 1.81 and the “Gene Relative Expression GM-CSF” value (human PBMC cells; 0.01 μM) is reported as 1.00. The “Gene Relative Expression IFN-α” value (human PBMC cells; 0.01 μM) was 0.73, the “Gene Relative Expression IFNγ” value (human PBMC cells; 0.01 μM) was 1.46 and the “Gene Relative Expression IL-1β” value (human PBMC cells; 0.01 μM) was 0.38. The “Gene Relative Expression IL-2” value (human PBMC cells; 0.01 μM) was 1.32, the “Gene Relative Expression IL-6” value (human PBMC cells; 0.01 μM) was 0.57 and the “Gene Relative Expression IL-8” value (human PBMC cells; 0.01 μM) was 0.44. The “Gene Relative Expression IL-10” value (human PBMC cells; 0.01 μM) was 1.59, the “Gene Relative Expression IL-12p40” value (human PBMC cells; 0.01 μM) was 0.34 and the “Gene Relative Expression IL-12p70” value (human PBMC cells; 0.01 μM) was 1.05. For the same compound, the “Gene Relative Expression IL-13” value (human PBMC cells; 0.01 μM) was 0.37, the “Gene Relative Expression IL-18” value (human PBMC cells; 0.01 μM) was 0.63 and the “Gene Relative Expression ISG15” value (human PBMC cells; 0.01 μM) was 0.94. For the same compound, the “Gene Relative Expression MIP1a (CCL3)” value (human PBMC cells; 0.01 μM) was 1.29, the “Gene Relative Expression MX1” value (human PBMC cells; 0.01 μM) was 0.77 and the “Gene Relative Expression OAS1” value (human PBMC cells; 0.01 μM) was 0.85. The “Gene Relative Expression TNF-α” value (human PBMC cells; 0.01 μM) was 1.34, the “Gene Relative Expression CCL2” value (human PBMC cells; 0.03 μM) was 6.53 and the “Gene Relative Expression GM-CSF” value (human PBMC cells; 0.03 μM) was 1.88. The “Gene Relative Expression IFN-α” value (human PBMC cells; 0.03 μM) was 1.21, the “Gene Relative Expression IFNγ” value (human PBMC cells; 0.03 μM) was 1.49 and the “Gene Relative Expression IL-1β” value (human PBMC cells; 0.03 μM) was 0.94. For the same compound, the “Gene Relative Expression IL-2” value (human PBMC cells; 0.03 μM) was 3.59, the “Gene Relative Expression IL-4” value (human PBMC cells; 0.03 μM) was 1.19 and the “Gene Relative Expression IL-6” value (human PBMC cells; 0.03 μM) was 1.23. For the same compound, the “Gene Relative Expression IL-8” value (human PBMC cells; 0.03 μM) was 0.66, the “Gene Relative Expression IL-10” value (human PBMC cells; 0.03 μM) was 0.86 and the “Gene Relative Expression IL-12p40” value (human PBMC cells; 0.03 μM) was 0.38. The “Gene Relative Expression IL-12p70” value (human PBMC cells; 0.03 μM) was 0.96, the “Gene Relative Expression IL-13” value (human PBMC cells; 0.03 μM) was 5.87 and the “Gene Relative Expression IL-18” value (human PBMC cells; 0.03 μM) was 0.19. For the same compound, the “Gene Relative Expression ISG15” value (human PBMC cells; 0.03 μM) was 0.97, the “Gene Relative Expression MIP1a (CCL3)” value (human PBMC cells; 0.03 μM) was 1.67 and the “Gene Relative Expression MX1” value (human PBMC cells; 0.03 μM) was 0.65. The “Gene Relative Expression OAS1” value (human PBMC cells; 0.03 μM) was 0.55, the “Gene Relative Expression TNF-α” value (human PBMC cells; 0.03 μM) was 2.91 and the “Gene Relative Expression CCL2” value (human PBMC cells; 0.10 μM) was 0.40. For the same compound, the “Gene Relative Expression GM-CSF” value (human PBMC cells; 0.10 μM) was 21.01, the “Gene Relative Expression IFN-α” value (human PBMC cells; 0.10 μM) was 0.80 and the “Gene Relative Expression IFNγ” value (human PBMC cells; 0.10 μM) was 11.33. For the same compound, the “Gene Relative Expression IL-1β” value (human PBMC cells; 0.10 μM) was 3.00, the “Gene Relative Expression IL-2” value (human PBMC cells; 0.10 μM) was 4.98 and the “Gene Relative Expression IL-4” value (human PBMC cells; 0.10 μM) was 2.78. The “Gene Relative Expression IL-6” value (human PBMC cells; 0.10 μM) was 6.15, the “Gene Relative Expression IL-8” value (human PBMC cells; 0.10 μM) was 0.44 and the “Gene Relative Expression IL-10” value (human PBMC cells; 0.10 μM) was 0.12. The “Gene Relative Expression IL-12p70” value (human PBMC cells; 0.10 μM) was 0.74, the “Gene Relative Expression IL-13” value (human PBMC cells; 0.10 μM) was 121.59 and the “Gene Relative Expression IL-18” value (human PBMC cells; 0.10 μM) was 0.05. The “Gene Relative Expression ISG15” value (human PBMC cells; 0.10 μM) was 1.57, the “Gene Relative Expression MIP1a (CCL3)” value (human PBMC cells; 0.10 μM) was 4.95 and the “Gene Relative Expression MX1” value (human PBMC cells; 0.10 μM) was 1.06. For the same compound, the “Gene Relative Expression OAS1” value (human PBMC cells; 0.10 μM) was 0.71, the “Gene Relative Expression TNF-α” value (human PBMC cells; 0.10 μM) was 6.52 and the “Relative wound healing to control (%)” value (Hela cells; 3 nM) was 162%. For the same compound, the “Relative wound healing to control (%)” value (Hela cells; 10 nM) was 237%, the “Relative wound healing to control (%)” value (Hela cells; 30 nM) was 267% and the IC50 (A549 cell line) was 0.001 to 0.01 µM. The IC50 (KP-4 (Pancreatic)) was 1 to 10 nM.

For `CC1=C[C@H]2[C@@]3(O)[C@H](C)C[C@]4(OC(=O)[C@@H](N)C5Cc6ccccc6C5)[C@H]([C@@H]3C=C(CO)C[C@]2(O)C1=O)C4(C)C`, the EC50 [1] was 0.06 to 0.1 µM, the “Relative wound healing to control (%)” value (Hela cells; 30 nM) was 210% and the “Relative wound healing to control (%)” value (Hela cells; 100 nM) was 248%. For the same compound, the “Relative wound healing to control (%)” value (Hela cells; 300 nM) was 238%, the IC50 (A549 cell line) was 0.06 to 0.1 µM and the IC50 (KP-4 (Pancreatic); 96 h) was 100 to 600 nM.
